Experimental data reported in PMC9456261 (International Journal of Molecular Sciences, 2022).

What was measured:
in vitro = conditions: African green monkey
Vero E6 cells = assay: Cytotoxicity, MTT assay
SARS-CoV-2 = assay: Time-of-drug-addition assay (qRT-PCR of viral RNA in supernatant); type: cell-based; conditions: 25 µM, Vero E6, MOI 0.01, qRT-PCR 18 h post-infection
Description: To explore which steps of the SARS-CoV-2 replication cycle were interrupted by the test compounds, we performed a time-of-drug-addition assay for compounds 874 and 876, which were selected as representatives with different substituents at positions N1 and N3. Cells were treated with 25 µm of these compounds at various stages of infection (entry, full time and post-entry) which was followed by qRT-PCR assays.
The assays were performed as described previously. Briefly, Vero E6 cells were seeded into 96-well plates and treated with 874 or 876 (25 µM) at different stages of virus infection (full-time, entry and post-entry). The cells were infected with SARS-CoV-2 (MOI = 0.01) and then incubated for 1 h. The viral inoculum was then removed, and the cells were washed twice with PBS. At 18 h post-infection, the cell culture supernatant of each time point experiment was collected for viral yield measurements using qRT–PCR, as described in [31, 33].
Figure 3 Time-of-drug-addition Assay. Vero E6 cells were treated with the compounds at different time points of the viral replication cycle as described in the Materials and Methods chapter. For all experimental groups, cells were infected with SARS-CoV-2 at an MOI of 0.01. Viral RNA copies in the supernatant were quantified by qRT-PCR at 18 h post-infection. All results are shown as mean ± SEM (n = 3). One-way ANOVA with Tukey’s post hoc test: ** p < 0.01, *** p < 0.001 and **** p < 0.0001.

[1] = molecular target: SARS-CoV-2 RdRp (NSP12, NSP7 and NSP8) (Severe acute respiratory syndrome coronavirus 2, UniProt P0DTD1); assay: Inhibition of SARS-CoV-2 RNA-dependent RNA polymerase activity (Profoldin kit); type: biochemical
Description: SARS-CoV-2 RdRp activity was inhibited by 876 at 100 µM and 50 µM, by 100% and 60%, respectively (Figure 6).
The activity of SARS-CoV-2 RdRp was assessed using the SARS-CoV-2 RNA-dependent RNA polymerase kit plus (Profoldin #S2RPA100KE), according to the manufacture instructions. In brief, reactions were carried out at 35 °C for 2 h in the presence or absence (control) of the test compound. Then, fluorescent dye was added, and fluorescence was determined using a Qubit fluorimeter (Thermo Fisher, MA, USA). The inhibition of RdRp activity was calculated from the values obtained for control samples.
Figure 6 Uracil Derivative 876 Inhibit the Transcriptional Activity of SARS-CoV-2 RNA-dependent RNA polymerase. Transcriptional inhibition plot of the SARS-CoV-2 replication complex treated with 876 or PBS (control) (n = 3). Results are representative mean ± SEM. One-way ANOVA with Tukey’s post hoc test: *** p < 0.001 and **** p < 0.0001.

O=C(O)c1ccc(OCCCCn2c(=O)ccn(Cc3cccc4ccccc34)c2=O)cc1 [Compound 601, 4-[4-[2,6-Dioxo-3-(naphthyl-1-methyl)-3,6-dihydropyrimidin-1(^2H)-yl]butoxy]benzoic acid]
CC50 (in vitro): > 50 µM | melting point: 183 to 184.5 °C

O=C(O)c1ccc(OCCCn2c(=O)ccn(CCCCCCCCCCCCOc3ccc(Br)cc3)c2=O)cc1 [Compound 1007, 4-[3-[3-[12-(4-Bromophenoxy)dodecyl]-2,6-dioxo-3,6-dihydropyrimidin-1(^2H)-yl]propoxy]benzoic acid]
CC50 (in vitro): > 25 µM | Effect on cell proliferation / cell death (Vero E6 cells): reduced cell proliferation without significant cell death

Cc1cc(C)cc(OCCCCCn2ccc(=O)n(CCCCCOc3ccc(C(=O)O)cc3)c2=O)c1 [Compound 874, 4-[5-[3-[5-(3,5-Dimethylphenoxy)pentyl]-2,6-dioxo-3,6-dihydropyrimidin-1(^2H)-yl]pentyloxy]benzoic acid]
Production of viral RNA, compound added at entry step (SARS-CoV-2): did not inhibit the production of viral RNA | Virus replication (viral load in supernatant), compound added full time (SARS-CoV-2): inhibited virus replication | CC50 (in vitro): > 25 µM | Effect on cell proliferation / cell death (Vero E6 cells): reduced cell proliferation without significant cell death

O=c1ccn(Cc2c3ccccc3cc3ccccc23)c(=O)n1CCCCCCOc1ccc(Br)cc1 [Compound 611, 1-(Anthracen-9-ylmethyl)-3-[6-(4-bromophenoxy)hexyl]uracil]
CC50 (in vitro): > 50 µM

O=C(O)c1ccc(OCCCCCn2c(=O)ccn(Cc3c4ccccc4cc4ccccc34)c2=O)cc1 [Compound 876]
inhibition at 50 µM ([1]; 50 µM): 60% | inhibition at 100 µM ([1]; 100 µM): 100% | Production of viral RNA, compound added at entry step (SARS-CoV-2): did not inhibit the production of viral RNA | Virus replication (viral load in supernatant), compound added full time (SARS-CoV-2): inhibited virus replication | Viral load, compound added post-entry (SARS-CoV-2; post-entry): reduced the viral load | CC50 (in vitro): > 50 µM | melting point: 173 to 176 °C

O=C(O)c1ccc(OCCCCn2c(=O)ccn(Cc3ccc4ccccc4c3)c2=O)cc1 [Compound 1005, 4-[4-[2,6-Dioxo-3-(naphthyl-2-methyl)-3,6-dihydropyrimidin-1(^2H)-yl]butoxy]benzoic acid]
CC50 (in vitro): > 50 µM | melting point: 143.5 to 145 °C

O=C(O)c1ccc(OCCCCCn2c(=O)ccn(CCCCCOc3ccccc3Br)c2=O)cc1 [Compound 871, 4-[5-[3-[5-(2-Bromophenoxy)pentyl]-2,6-dioxo-3,6-dihydropyrimidin-1(^2H)-yl]pentyloxy]benzoic acid]
CC50 (in vitro): > 25 µM | Effect on cell proliferation / cell death (Vero E6 cells): reduced cell proliferation without significant cell death

O=C(O)c1ccc(Cn2c(=O)ccn(CCCCCOc3ccc(Br)cc3)c2=O)cc1 [Compound 875]
CC50 (in vitro): > 50 µM

O=C(O)c1ccc(OCCCCn2c(=O)ccn(Cc3ccc(Br)c4ccccc34)c2=O)cc1 [Compound 1006, 4-[4-[3-(4-Bromonaphthyl-1-methyl)-2,6-dioxo-3,6-dihydropyrimidin-1(2H)-yl]butoxy]benzoic acid]
CC50 (in vitro): > 50 µM | melting point: 195.5 to 197.5 °C

O=C(O)c1ccc(OCCCCn2c(=O)ccn(CCCOc3ccc(Br)cc3)c2=O)cc1 [Compound 873, 4-[4-[3-[3-(4-Bromophenoxy)propyl]-2,6-dioxo-3,6-dihydropyrimidin-1(^2H)-yl]butoxy]benzoic acid]
CC50 (in vitro): > 50 µM | melting point: 122 to 124 °C

O=C(O)c1ccc(OCCCCCn2c(=O)ccn(CCCCCOc3ccc(F)cc3)c2=O)cc1 [Compound 870, 4-[5-[3-[5-(4-Fluorophenoxy)pentyl]-2,6-dioxo-3,6-dihydropyrimidin-1(^2H)-yl]pentyloxy]benzoic acid]
CC50 (in vitro): > 50 µM | melting point: 133 to 135 °C

4-[5-[3-[5-(2-Bromophenoxy)pentyl]-2,6-dioxo-5-methyl-3,6-dihydropyrimidin-1(^2H)-yl]pentyloxy]benzoic acid [Compound 872]
CC50 (Vero E6 cells; 72 h): > 50 µM
